# Laboratory results published in ChEMBL document CHEMBL6078648, “Prioritization of Eleven-Nineteen-Leukemia Inhibitors as Orally Available Drug Candidates for Acute Myeloid Leukemia” (J Med Chem, 2024).
# Active and inactive are the calls of the source. The rule behind the calls is not given here.
# Tests used:
# [1] = system: Jurkat; experiment: Cytotoxicity against human Jurkat cells assessed as cell viability incubated for 8 days by CCK-8 assay; type: functional; conditions: 192 h, time 8 day
# [2] = system: MOLM-13; experiment: Downregulation of MEISI expression in human MOLM-13 cells at 1 uM measured for 72 hrs by qRT-PCR analysis; type: functional, cell-based
# [3] = Toxicity in NSG mouse implanted with human MOLM-13 assessed as tolerability at 200 mg/kg, po qd measured every 2 to 3 days; type: organism-based; conditions: in vivo, time 2-3 day
# [4] = Toxicity in NSG mouse implanted with human MOLM-13 assessed as body weight loss at 200 mg/kg, po qd; type: organism-based; conditions: in vivo
# [5] = system: MV4-11; experiment: Downregulation of MYB expression in human MV4-11 cells at 1 uM measured for 72 hrs by qRT-PCR analysis; type: functional, cell-based
# [6] = Metabolic stability in human plasma assessed as parent compound remaining measured after 2 hrs by HPLC-MS/MS analysis; type: ADME, cell-free
# [7] = system: MV4-11; experiment: Induction of cell cycle arrest in human MV4-11 cells assessed as increase in accumulation of cells at G1 phase at 1 to 10 uM incubated for 72 hrs by PI staining based flow cytometric analysis; type: functional; conditions: dose 1-10 µM
# [8] = Toxicity in NSG mouse implanted with human MOLM-13 assessed as body weight loss at 200 mg/kg, po qd measured every 2 to 3 days; type: organism-based; conditions: in vivo, time 2-3 day
# [9] = Toxicity in NSG mouse implanted with human MOLM-13 assessed as tolerability at 200 mg/kg, po qd; type: organism-based; conditions: in vivo
# [10] = system: MOLM-13; experiment: Cytotoxicity against human MOLM-13 cells assessed as cell viability incubated for 8 days by CCK-8 assay; type: functional; conditions: for CC50: MOLM-13, 192 h, time 8 day; for Activity: time 8.0 day
# [11] = system: MOLM-13; experiment: Antitumor activity against human MOLM-13 cells xenografted in NSG mouse at 400 mg/kg, po qd measured from 10 to 15 days; type: functional, organism-based; conditions: time 10-15 day
# [12] = system: MV4-11; experiment: Downregulation of HOXA10 expression in human MV4-11 cells at 1 uM measured for 72 hrs by qRT-PCR analysis; type: functional, cell-based
# [13] = system: MOLM-13; experiment: Induction of cell cycle arrest in human MOLM-13 cells assessed as increase in accumulation of cells at G1 phase at 1 to 10 uM incubated for 72 hrs by PI staining based flow cytometric analysis; type: functional; conditions: dose 1-10 µM
# [14] = target: T1, Protein ENL (Homo sapiens) (UniProt Q03111); experiment: Binding affinity to ENL in human MV4-11 cells assessed as increase in protein thermal stabilization at 10 uM incubated for 3 to 6 hrs by CETSA analysis; type: cell-based; conditions: time 3-6 hrs
# T1 sequence (whole entry): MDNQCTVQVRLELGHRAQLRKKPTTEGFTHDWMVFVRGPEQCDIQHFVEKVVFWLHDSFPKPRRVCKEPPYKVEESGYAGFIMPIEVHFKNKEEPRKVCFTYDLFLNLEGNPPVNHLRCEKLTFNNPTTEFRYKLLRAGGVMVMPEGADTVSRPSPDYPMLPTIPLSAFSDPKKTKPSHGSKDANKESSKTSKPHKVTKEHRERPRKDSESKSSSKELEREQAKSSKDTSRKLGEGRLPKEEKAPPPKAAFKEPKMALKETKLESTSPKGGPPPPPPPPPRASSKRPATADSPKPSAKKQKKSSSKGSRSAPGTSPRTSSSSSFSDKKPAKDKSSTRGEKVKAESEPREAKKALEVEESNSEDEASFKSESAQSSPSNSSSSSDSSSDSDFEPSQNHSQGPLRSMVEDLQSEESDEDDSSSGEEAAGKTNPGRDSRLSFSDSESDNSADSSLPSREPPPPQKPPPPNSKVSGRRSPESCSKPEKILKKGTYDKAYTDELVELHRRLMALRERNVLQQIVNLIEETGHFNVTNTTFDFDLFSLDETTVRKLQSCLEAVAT
# [15] = system: MOLM-13; experiment: Downregulation of HOXA9 expression in human MOLM-13 cells at 1 uM measured for 72 hrs by qRT-PCR analysis; type: functional, cell-based
# [16] = system: MV4-11; experiment: Downregulation of MYC expression in human MV4-11 cells at 1 uM measured for 72 hrs by qRT-PCR analysis; type: functional, cell-based
# [17] = system: MV4-11; experiment: Downregulation of MEISI expression in human MV4-11 cells at 1 uM measured for 72 hrs by qRT-PCR analysis; type: functional, cell-based
# [18] = Cytotoxicity against human HEK293T cells assessed as cell viability incubated for 8 days by CCK-8 assay; type: toxicity, cell-based, HEK-293T; conditions: time 8 day
# [19] = system: MV4-11; experiment: Cytotoxicity against human MV4-11 cells assessed as cell viability incubated for 8 days by CCK-8 assay; type: functional; conditions: for CC50: MV4-11, 192 h, time 8 day; for Activity: time 8.0 day
# [20] = system: Jurkat; experiment: Antiproliferative activity against human Jurkat cells assessed as reduction in cell proliferation at 1 uM measured upto 2 weeks; type: functional, cell-based
# [21] = system: MV4-11; experiment: Downregulation of HOXA9 expression in human MV4-11 cells at 1 uM measured for 72 hrs by qRT-PCR analysis; type: functional, cell-based
# [22] = target: T1, Protein ENL (Homo sapiens); experiment: Binding affinity to ENL in human MOLM-13 cells assessed as increase in protein thermal stabilization at 10 uM incubated for 3 to 6 hrs by CETSA analysis; type: cell-based; conditions: time 3-6 hrs
# [23] = system: MOLM-13; experiment: Downregulation of MYC expression in human MOLM-13 cells at 1 uM measured for 72 hrs by qRT-PCR analysis; type: functional, cell-based
# [24] = system: MOLM-13; experiment: Downregulation of HOXA10 expression in human MOLM-13 cells at 1 uM measured for 72 hrs by qRT-PCR analysis; type: functional, cell-based
# [25] = system: MOLM-13; experiment: Downregulation of MYB expression in human MOLM-13 cells at 1 uM measured for 72 hrs by qRT-PCR analysis; type: functional, cell-based
# [26] = Metabolic stability in human plasma assessed as parent compound remaining measured after 1 hrs by HPLC-MS/MS analysis; type: ADME, cell-free
# [27] = target: T1, Protein ENL (Homo sapiens); experiment: Binding affinity to ENL YEATS domain (unknown origin) (1 to 148 residues) expressed in HEK293 cells assessed as […] incubated for 2 hrs by NanoBRET assay; type: cell-based; conditions: dose <= 100.0 µM
# [28] = system: MOLM-13; experiment: Cytotoxicity against human MOLM-13 cells assessed as cell viability upto 100 uM incubated for 72 hrs by CCK-8 assay; type: functional, cell-based
# [29] = system: MV4-11; experiment: Cytotoxicity against human MV4-11 cells assessed as cell viability upto 100 uM incubated for 72 hrs by CCK-8 assay; type: functional, cell-based
# [30] = target: T1, Protein ENL (Homo sapiens); experiment: Inhibition of ENL YEATS domain (unknown origin) (1 to 148 residues) preincubated with compound for 1 hr followed by alpha-bead addition and measured after 30 mins under dark condition by Alphascreen assay; conditions: time 90.0 min
smiles,measurement,setting,value
CC(C)[C@H]1CCN1Cc1cc2cnc(NC(=O)c3ccc4nncn4c3)cc2[nH]1,CC50,[1],> 64 µM
same,Activity,[2],Active
same,Activity,[3],Non-toxic
same,Activity,[4],Non-toxic
same,Activity,[5],Active
same,Stability,[6],94.54%
same,Activity,[7],Active
same,Activity,[8],Non-toxic
same,Activity,[9],Non-toxic
same,CC50,[10],1.25 µM
same,Activity,[11],Active
same,Activity,[12],Active
same,Activity,[13],Active
same,Activity,[14],Active
same,Activity,[15],Active
same,Activity,[16],Active
same,Activity,[17],Active
same,CC50 at 192 h,[18],> 64 µM
same,CC50,[19],0.81 µM
same,Activity,[20],inactive
same,Activity,[21],Active
same,Activity,[22],Active
same,Activity,[23],Active
same,Activity,[24],Active
same,Activity,[25],Active
O=C(Nc1cc2[nH]c(CN3CCC3C3CC3)cc2cn1)c1ccc2nncn2c1 (centres undefined),Stability,[26],> 60%
same,CC50 at 192 h,[18],> 64 µM
same,Activity,[20],inactive
O=C(CCC1=[N+]2C(=Cc3ccc(-c4ccc[nH]4)n3[B-]2(F)F)C=C1)NCCCC(=O)Nc1cccc(-c2cn3cc(C(=O)NC4CCC4)ccc3n2)c1,Activity,[27],Dose-dependent-effect
CC1CCN1Cc1ccc(CNC(=O)c2ccc3nncn3c2)cc1 (centres undefined),Activity,[10],inactive
same,Activity,[28],Active
same,Activity,[19],inactive
same,Activity,[29],Active
CSc1ccc(CNC(=O)c2ccc3nncn3c2)cc1,Activity,[10],inactive
same,Activity,[28],Active
same,Activity,[19],inactive
same,Activity,[29],Active
CC(C)C1CCN1Cc1cc2cnc(NC(=O)c3ccc4nncn4c3)cc2[nH]1 (centres undefined),CC50,[1],> 64 µM
same,CC50,[10],< 4 µM
same,CC50 at 192 h,[18],> 64 µM
same,CC50,[19],< 4 µM
same,Activity,[20],inactive
O=C(NCc1ccc(CN2CCCCC2)cc1)c1ccc2nncn2c1,inhibition,[30],Active
O=C(NCc1ccc(CN2CCC2)cc1)c1ccc2nncn2c1,inhibition,[30],Active
